# Earlier results as cited in patent EP0408384A1, “N,N'-dicarboxymethyl, N,N'-dicarbamoylmethyl diaminoalkane derivatives and their use in pharmaceutical compositions” (BRITISH TECHNOLOGY GROUP LIMITED, priority 1989, dated 1991).
# System: daunorubicin toxicity
# Conditions: acute daunorubicin toxicity; literature report
row,Compound,protection against the lethal effects of daunorubicin
1,O=C1CN(CCN2CC(=O)N(CN3CCOCC3)C(=O)C2)CC(=O)N1CN1CCOCC1 [bimolane],give protection
2,CC(CN1CC(=O)NC(=O)C1)N1CC(=O)NC(=O)C1 (centres unmarked) [compound having R = CH₃ and R′ = R˝ = H],give protection
